# From PMC8856729 (Bioorganic & Medicinal Chemistry Letters, 2022)
# Read-outs that look alike come from different tables or passages of the source.
# Test system: SARS-CoV-2 M^pro variants (all mutants and the WT)
# Type: biochemical
smiles,measurement,setting,value
CC(C)(C)[C@H](NC(=O)C(F)(F)F)C(=O)N1C[C@H]2[C@@H]([C@H]1C(=O)N[C@H](C#N)C[C@@H]1CCNC1=O)C2(C)C [nirmatrelvir],inhibition,0.005 µM,below 50%
same,inhibition,0.02 µM,over 50%
same,inhibition of enzymatic activity,0.1 µM,fully inhibited
